Results from article PMC9147192, “Small Molecule Arranged Thermal Proximity Coaggregation (smarTPCA)—A Novel Approach to Characterize Protein–Protein Interactions in Living Cells by Similar Isothermal Dose–Responses” (International Journal of Molecular Sciences, 2022).
“And” between values parts separate entries of the source, which are not always exact repeats. Equal entries are not always repeated. Where two headings read alike, the source gives them in different places.

Columns and labels:
[1] = test system: MAPK14; design: method as in Jafari et al., Nat. Protoc. 2014; details: MAPK14, living HL-60 cells, ref Jafari et al., Nat. Protoc. 2014, cited from earlier work
[2] = target: T1, GSK-3α (Homo sapiens, UniProt P49840); assay: CETSA in living HL-60 cells, immunoblot; format: cell-based
T1 construct: parallel detection of MAPK14, MAPKAPK2, MAPKAPK3, and GSK-3α; endogenous in cells; host or cells: HL-60 (ATCC CCL-240), living cells or cell extract
Protocol: (§1) First, we conducted CETSA experiments according to Jafari et al.. […] Subsequent SDS-PAGE and immunoblotting were performed according to optimized conditions allowing for parallel detection of MAPK14, MAPKAPK2, MAPKAPK3, and GSK-3α (Supplementary Figure S1).
(§2) HL-60 cells (ATCC No. CCL-240) were expanded to about […] in 80 mL cell culture medium (RPMI-1640 supplemented with 10% (v/v) FBS, 1% (v/v) penicillin-streptomycin and 1% (v/v) L-glutamine solution) and divided into four aliquots (20 mL each, 25 million cells per flask). […] The same volume of DMSO was added to the remaining aliquot serving as the vehicle (DMSO) control. After incubation (1 h, 37 °C, 5% CO2, in cell culture CO2 incubator), the cell suspensions were transferred into 50 mL conical tubes, cell number and viability were determined, and after centrifugation (300 relative centrifugal force (rcf), 3 min, room temperature (r.t.)), the supernatants were completely removed and discarded. The cells were washed using 20 mL Dulbecco’s phosphate-buffered saline (PBS), respectively, by resuspension and centrifugation (300 rcf, 3 min, r.t.). After the complete removal of the supernatants, the cells were transferred into pre-weighed 2 mL Eppendorf tubes using 0.5 mL PBS (r.t.), respectively, for resuspending. After centrifugation (300 rcf, 3 min, r.t.) and removing as much as possible of the supernatants, the cell wet weights were determined.
(§3) The suspensions were shortly centrifuged (1 s or less) using a benchtop centrifuge that was equipped with an inset for PCR tubes to release trapped air and to achieve an even liquid level without pelleting the cells. The 100 µL cell suspensions were then temperature treated by a 7 min pre-incubation at r.t., a 3 min incubation at the following different temperatures in the PCR cycler (DNA Engine Tetrad 2, lid temperature 70 °C, gradient block 1: 36–55 °C, gradient block 2: 48–67 °C), and a 3 min post-incubation at r.t. in a metal heating block for uniform heat dissipation.
(§4) The cells were lysed by four freeze/thaw cycles consisting of thawing the samples (in a heat block set to 25 °C and shaking at 1250 rpm) accompanied by mixing them several times by inversion and then shock freezing them again in liquid nitrogen. The resulting lysates were kept cold (on ice or 4 °C) from then on. After centrifugation (20,000 rcf, 30 min, 4 °C) to pellet the cell debris together with precipitated and aggregated proteins, the supernatants were recovered and, after determining the total protein concentration (Pierce 660 nm Protein Assay, BSA as standard), the resulting cell extracts containing the fraction of soluble, non-denatured proteins were shock frozen in liquid nitrogen and stored at −80 °C.
(§5) For each sample set comprising either ten temperature range samples or ten compound concentration range samples, the same volume of the cell extracts containing the fraction of soluble, non-denatured proteins was used for further analysis. This volume was determined using the two lowest temperature samples (36.5 and 41.2 °C) per temperature range sample set so that they contained an average of 5 µg total protein (e.g., 2.78 µL for all temperature range samples of a sample set whose two lowest temperature samples contain an average of 1.8 mg/mL protein). For the compound concentration range experiments, all samples of a set were used for averaging.

[3] = target: T2, MAPKAPK3 (Homo sapiens, UniProt Q16644); assay: CETSA in living HL-60 cells, immunoblot; format: cell-based
Protocol: as §1, §2, §3, §4, §5

[4] = target: T3, MAPKAPK2 (Homo sapiens, UniProt P49137); assay: CETSA in living HL-60 cells, immunoblot; format: cell-based; details: for Top: top plateau of melting curve fit
Protocol: as §1, §2, §3, §4, §5

[5] = target: MAPK8 (Homo sapiens, UniProt P45983); assay: TPP-CCR in living HL-60 cells; details: […] °C, TMT-MS
[6] = target: T4, HN1L (Homo sapiens, UniProt Q9H910); assay: TPP-CCR in living HL-60 cells; details: for Hill slope (HN1L): living HL-60 cells, […] °C, TMT-MS
T4 sequence (Q9H910 1-190): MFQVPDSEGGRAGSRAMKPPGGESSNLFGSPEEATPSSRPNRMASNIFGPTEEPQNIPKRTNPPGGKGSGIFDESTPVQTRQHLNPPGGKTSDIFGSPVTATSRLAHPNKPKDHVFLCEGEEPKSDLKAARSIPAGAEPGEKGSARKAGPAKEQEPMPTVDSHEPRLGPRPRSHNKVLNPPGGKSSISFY

[7] = target: T2, MAPKAPK3; assay: TPP-TR in living HL-60 cells; format: cell-based; details: 20 μM, single set (no replicates)
Protocol: as §2, §3, §4
(§6) For each sample set comprising ten temperature range samples, the same volume of the cell extracts containing the fraction of soluble, non-denatured proteins was used for further analysis. Volume calculation for 30 µg total protein was performed as described for SDS-PAGE and immunoblotting. The calculated volume was respectively transferred into 0.5 mL LoBind Eppendorf tubes and evaporated to dryness using vacuum centrifugation (SpeedVac concentrator, Eppendorf, Hamburg, Germany). The dried proteins were each reconstituted in 10 µL of SDS sample buffer (containing DTT) and incubated for 30 min at 50 °C with shaking (700 rpm). 1.111 µL 1 M iodoacetamide (IAA) was added to each sample (final 100 mM IAA), then the samples were mixed and incubated for 30 min at r.t. in the dark. Sample quality was controlled by SDS-PAGE/silver staining using 0.926 µL of each sample (2.5 µg on average for the two lowest temperature samples; 26-well 4–12% Bis-Tris polyacrylamide gels, Novex NuPAGE, Thermo Scientific; 15 min at 50 V, about 1.5 h at 200 V using the recommended MOPS running buffer).

[8] = target: T3, MAPKAPK2; assay: TPP-TR in living HL-60 cells; format: cell-based; details: 20 μM, single set (no replicates)
Protocol: as §2, §3, §4, §6

[9] = target: MYLK (Homo sapiens, UniProt Q15746); assay: TPP-TR in living HL-60 cells; format: cell-based; details: 20 μM, single set (no replicates)
Protocol: as §2, §3, §4, §6

[10] = test system: MAPKAPK2 phosphorylation; assay: MAPKAPK2 phosphorylation-dependent electrophoretic mobility shift (PDEMS) immunoblot, living HL-60 cells; details: 20 µM inhibitor
[11] = GSK-3α, living cells, immunoblot
[12] = living HL-60 cells, 20 µM inhibitor, immunoblot
[13] = living HL-60 cells, 20 µM inhibitor, immunoblot, read-out: ΔTm to DMSO (GSK-3α)
[14] = MAPKAPK3, living cells, immunoblot
[15] = living HL-60 cells, 20 µM inhibitor, immunoblot, 20 µM
[16] = MAPKAPK2, living cells, immunoblot

T1 sequence (P49840 whole entry): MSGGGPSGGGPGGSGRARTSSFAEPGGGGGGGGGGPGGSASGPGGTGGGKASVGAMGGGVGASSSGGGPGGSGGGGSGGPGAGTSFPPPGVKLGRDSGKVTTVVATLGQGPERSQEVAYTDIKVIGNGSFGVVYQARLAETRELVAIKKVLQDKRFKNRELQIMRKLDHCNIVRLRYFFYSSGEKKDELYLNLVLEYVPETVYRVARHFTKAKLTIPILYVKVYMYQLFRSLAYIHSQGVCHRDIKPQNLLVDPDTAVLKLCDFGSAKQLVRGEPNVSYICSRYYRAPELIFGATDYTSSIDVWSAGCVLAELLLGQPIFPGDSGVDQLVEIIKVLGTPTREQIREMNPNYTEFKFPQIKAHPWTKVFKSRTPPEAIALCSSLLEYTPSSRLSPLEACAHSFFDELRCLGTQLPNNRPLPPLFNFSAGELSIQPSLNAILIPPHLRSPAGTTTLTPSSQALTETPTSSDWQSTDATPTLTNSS
T2 sequence (Q16644 whole entry): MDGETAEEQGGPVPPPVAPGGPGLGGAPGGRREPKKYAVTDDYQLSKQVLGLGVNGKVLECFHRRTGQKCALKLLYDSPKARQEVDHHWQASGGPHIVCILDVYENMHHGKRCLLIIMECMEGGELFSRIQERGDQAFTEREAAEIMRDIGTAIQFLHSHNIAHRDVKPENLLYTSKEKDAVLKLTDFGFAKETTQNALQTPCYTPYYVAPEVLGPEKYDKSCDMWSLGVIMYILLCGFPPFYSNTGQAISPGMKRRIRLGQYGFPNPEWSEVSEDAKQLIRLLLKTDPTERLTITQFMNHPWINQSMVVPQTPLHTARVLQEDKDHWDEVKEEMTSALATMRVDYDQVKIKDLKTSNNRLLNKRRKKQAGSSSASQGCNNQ
T3 sequence (P49137 whole entry): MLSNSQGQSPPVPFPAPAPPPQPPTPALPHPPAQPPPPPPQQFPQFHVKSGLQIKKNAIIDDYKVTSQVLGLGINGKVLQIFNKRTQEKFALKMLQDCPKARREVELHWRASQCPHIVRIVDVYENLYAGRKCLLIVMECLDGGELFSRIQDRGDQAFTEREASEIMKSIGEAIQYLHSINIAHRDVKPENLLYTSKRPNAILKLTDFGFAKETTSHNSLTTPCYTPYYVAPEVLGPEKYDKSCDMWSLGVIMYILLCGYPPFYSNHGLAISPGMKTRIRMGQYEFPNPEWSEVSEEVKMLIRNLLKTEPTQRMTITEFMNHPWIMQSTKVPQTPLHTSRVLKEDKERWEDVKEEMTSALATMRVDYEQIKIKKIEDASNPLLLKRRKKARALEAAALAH
Chain of MYLK (Q15746 whole entry): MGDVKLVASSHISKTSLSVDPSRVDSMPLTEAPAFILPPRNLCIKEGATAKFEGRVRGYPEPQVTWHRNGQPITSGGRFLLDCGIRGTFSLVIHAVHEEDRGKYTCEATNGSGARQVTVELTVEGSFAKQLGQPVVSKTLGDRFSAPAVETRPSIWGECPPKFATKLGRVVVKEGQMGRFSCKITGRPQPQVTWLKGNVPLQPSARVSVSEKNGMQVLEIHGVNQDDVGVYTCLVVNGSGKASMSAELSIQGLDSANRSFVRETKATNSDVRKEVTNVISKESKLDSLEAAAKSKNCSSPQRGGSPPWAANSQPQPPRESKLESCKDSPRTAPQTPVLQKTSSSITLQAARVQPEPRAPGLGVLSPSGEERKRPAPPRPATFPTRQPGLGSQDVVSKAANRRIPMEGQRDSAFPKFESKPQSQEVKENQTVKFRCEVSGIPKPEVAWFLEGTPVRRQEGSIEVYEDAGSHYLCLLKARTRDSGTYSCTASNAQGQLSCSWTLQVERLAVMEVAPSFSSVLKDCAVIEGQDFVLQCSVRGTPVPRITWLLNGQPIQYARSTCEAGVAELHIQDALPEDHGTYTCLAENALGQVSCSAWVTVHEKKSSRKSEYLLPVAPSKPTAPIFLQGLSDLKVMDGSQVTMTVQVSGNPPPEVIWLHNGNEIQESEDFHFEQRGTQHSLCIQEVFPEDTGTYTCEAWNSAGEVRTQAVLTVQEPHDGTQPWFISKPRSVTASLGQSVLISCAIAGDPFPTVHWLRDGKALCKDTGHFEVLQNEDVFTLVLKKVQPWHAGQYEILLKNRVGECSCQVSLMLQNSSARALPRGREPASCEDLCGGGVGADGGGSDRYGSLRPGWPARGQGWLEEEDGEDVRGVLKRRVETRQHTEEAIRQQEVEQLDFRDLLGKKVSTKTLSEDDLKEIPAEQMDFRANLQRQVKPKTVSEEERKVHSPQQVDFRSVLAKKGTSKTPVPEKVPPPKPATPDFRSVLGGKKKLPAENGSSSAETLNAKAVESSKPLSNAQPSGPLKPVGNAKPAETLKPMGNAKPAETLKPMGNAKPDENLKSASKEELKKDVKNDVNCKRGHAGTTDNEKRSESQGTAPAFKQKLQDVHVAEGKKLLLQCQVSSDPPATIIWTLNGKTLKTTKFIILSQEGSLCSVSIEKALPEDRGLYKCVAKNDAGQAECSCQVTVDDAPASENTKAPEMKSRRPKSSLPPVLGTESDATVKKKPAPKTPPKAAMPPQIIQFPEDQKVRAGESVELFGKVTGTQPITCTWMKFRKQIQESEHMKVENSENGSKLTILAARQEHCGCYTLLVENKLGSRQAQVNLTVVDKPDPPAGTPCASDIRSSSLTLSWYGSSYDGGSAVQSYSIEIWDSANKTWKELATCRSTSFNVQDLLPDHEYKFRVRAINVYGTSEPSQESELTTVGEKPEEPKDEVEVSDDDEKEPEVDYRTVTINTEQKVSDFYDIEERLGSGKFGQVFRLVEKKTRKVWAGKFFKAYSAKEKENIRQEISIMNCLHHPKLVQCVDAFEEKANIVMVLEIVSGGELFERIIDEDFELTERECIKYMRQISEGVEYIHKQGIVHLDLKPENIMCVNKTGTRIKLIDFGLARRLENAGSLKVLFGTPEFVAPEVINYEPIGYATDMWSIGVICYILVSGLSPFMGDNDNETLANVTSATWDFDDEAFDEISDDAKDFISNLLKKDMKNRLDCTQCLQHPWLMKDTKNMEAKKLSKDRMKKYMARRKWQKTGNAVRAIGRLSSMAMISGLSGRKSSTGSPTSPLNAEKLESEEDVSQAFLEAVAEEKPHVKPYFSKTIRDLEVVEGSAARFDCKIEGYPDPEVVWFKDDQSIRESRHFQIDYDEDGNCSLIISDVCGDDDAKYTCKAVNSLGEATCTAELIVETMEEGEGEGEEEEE
Chain of MAPK8 (P45983 whole entry): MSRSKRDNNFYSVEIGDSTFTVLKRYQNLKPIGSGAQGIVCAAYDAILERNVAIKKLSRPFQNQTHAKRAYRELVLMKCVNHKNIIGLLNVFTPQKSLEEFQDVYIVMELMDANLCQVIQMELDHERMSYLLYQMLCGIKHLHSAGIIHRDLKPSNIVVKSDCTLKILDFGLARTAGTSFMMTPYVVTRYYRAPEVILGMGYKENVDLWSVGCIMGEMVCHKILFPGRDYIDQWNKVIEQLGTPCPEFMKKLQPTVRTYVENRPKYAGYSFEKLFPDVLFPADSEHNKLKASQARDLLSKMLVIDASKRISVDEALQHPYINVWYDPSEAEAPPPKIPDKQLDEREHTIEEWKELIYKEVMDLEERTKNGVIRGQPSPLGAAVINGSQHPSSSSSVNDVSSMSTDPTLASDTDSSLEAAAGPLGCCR

Structure (SMILES)	Tagg values (given as averages ± s.d.), AlphaScreen [1]	Tagg values (given as averages ± s.d.), Western blot [1]	Tm [2, 11]	Tm (GSK-3α) [2, 12]	ΔTm at 20 µM [2, 13]	Tm [3, 14]	Tm (MAPKAPK3) [3, 12]	Hill slope (MAPK8) [5]	EC50 [6]	Hill slope (HN1L) [6]	thermal stabilization in melting curves (MAPKAPK3) [7]	thermal stabilization in melting curves (MAPKAPK2) [8]	thermal stabilization in melting curves (MYLK) [9]	MAPKAPK2 phosphorylation (band pattern, PDEMS) [10]	Top ([4]; MAPKAPK2, living cells)	other results
Cn1c(NC[C@@H](N)Cc2ccccc2)nc(-c2ccncc2)c(-c2ccc3ccccc3c2)c1=O [AMG-548]	59.2 ± 0.9 °C	60.6 ± 1.0 °C	53.26 °C	53.26 °C	-0.71 °C	54.68 °C	54.68 °C	0.24	389 nM	0.39	thermal stabilizations	thermal stabilizations	thermal stabilizations	inhibited apparent MAPKAPK2 phosphorylation	–	ΔTm to DMSO [3, 14]: 6.62 °C; ΔTm to DMSO (MAPKAPK3) [3, 15]: 6.6 °C and 6.62 °C; Tm [4, 16]: 54.39 °C; ΔTm to DMSO [4, 16]: 5.18 °C; Tm (MAPKAPK2) [4, 12]: 54.39 °C; ΔTm to DMSO (MAPKAPK2) [4, 15]: 5.2 °C and 5.18 °C
Cc1cnc(Nc2ccc(F)cc2Cl)nc1-c1c[nH]c(C(=O)N[C@H](CO)c2cccc(Cl)c2)c1 [ERK 11e]	no substantial response (same as DMSO)	no substantial response (same as DMSO)	54.11 °C	54.11 °C	–	–	–	–	110 nM	0.20	–	–	–	double band	36.1%	ΔTm at 20 µM ([2]; HL-60, read-out: ΔTm to DMSO (GSK-3α)): 0.14 °C; ΔTm at 20 µM ([3]; HL-60, read-out: ΔTm to DMSO (MAPKAPK3)): 0.26 °C; ΔTm at 20 µM ([4]; HL-60, read-out: ΔTm to DMSO (MAPKAPK2)): -0.02 °C; Hill slope ([6]; TPP-CCR, living cells, HN1L): 0.20
C[S+]([O-])c1ccc(-c2nc(-c3ccncc3)c(-c3ccc(F)cc3)[nH]2)cc1 (centres unmarked) [SB203580]	–	–	54.03 °C	54.03 °C	0.05 °C	51.56 °C	51.56 °C	0.44	–	–	thermal stabilizations	thermal stabilizations	thermal stabilizations	inhibited apparent MAPKAPK2 phosphorylation	87.0%	ΔTm to DMSO [2, 11]: 0.0529 °C
